Data: patent US20170168041A1, “Polymers And Oligomers With Aggregation-Induced Emission Characteristics For Imaging And Image-Guided Therapy” (National University of Singapore, priority 2014, published 2017)

Key:
MCF-7 cells = assay: MTT anti-proliferative assay; type: cell-based; conditions: in dark or with light irradiation
Experimental: (§1) Subsequently, the anti-proliferative properties of TPECB-Pt-D5-cRGD towards MDA-MB-231 cells, U87-MG cells, MCF-7 cells and 293T cells were evaluated by MTT assays. The MDA-MB-231 cells are cisplatin resistant while U87-MG cells are cisplatin-sensitive. […] It should be noted that the cytotoxicity of cisplatin to both cells was not affected by the light irradiation.

293T cells = assay: MTT anti-proliferative assay; type: cell-based; conditions: in dark or with light irradiation
Experimental: as §1

[1] = ROS generation of AIE residue of prodrug, ABDA absorbance; type: physicochemical; conditions: 12 min light irradiation, 0.25 W cm-2
Text: The ROS generation of the AIE residue was studied by measuring the absorption spectra of the mixture of TPECB-Pt-D5-cRGD and 9,10-anthracenediyl-bis(methylene)dimalonic acid (ABDA) in DMSO/PBS (v/v=1/199) upon light irradiation. It should be noted that the absorbance of TPECB-Pt-D5-cRGD is low and will not disturb the absorbance change of ABDA. As depicted in FIG. 23D, the absorption peaks at 358 nm, 378 nm and 400 nm attributed to the anthracene moiety in ABDA decreased gradually upon light irradiation. This is due to the fact that ABDA can efficiently trap ROS by fast reaction with the anthracene moiety.

[2] = 1O2 quantum yield measurement with ABDA, Rose Bengal standard; type: physicochemical; conditions: for 1O2 quantum yield: in water, white light, relative to Rose Bengal; for degradation rate of ABDA: white light irradiation, ABDA absorbance at 378 nm
Experimental: The ^1O2-sensitive indicator, 9,10-anthracenediyl-bis(methylene) dimalonic acid (ABDA), was used as the ^1O2-trapping agent, and Rose Bengal (RB) was used as the standard photosensitizer. In these experiments, 10 μL of ABDA solution ([…]) was added to 1 mL of sample solution, and white light (400-800 nm) with a power density of 0.25 W cm^−2 was employed as the irradiation source. The absorbance of ABDA at 378 nm was recorded at different irradiation time to obtain the decay rate of the photosensitizing process. The ^1O2 quantum yield of the PS in water (ΦPS) was calculated using the following formula: […]
Where KPS and KRB are the decomposition rate constants of ABDA by the PSs and RB, respectively. APS and ARB represent the light absorbed by the PSs and RB, respectively, which are determined by integration of the optical absorption bands in the wavelength range 400-800 nm. ΦRB is the ^1O2 quantum yield of RB, and ΦRB=0.75 in water.
To assess capabilities of PPDC, TPPDC, and TPDC in ^1O2 generation, a commercial ^1O2 probe ABDA was used as an indicator and Rose Bengal (RB) was used as the standard photosensitizer (^1O2 quantum yield ORB=0.75 in water). In the presence of PSs or RB under irradiation with white light, the absorbance of the ABDA solution at 378 nm, decreases with prolonged irradiation time, indicating the degradation of ABDA by ^1O2 generated by PSs. […] Thus, the ^1O2 quantum yield of PPDC, TPPDC and TPDC was calculated to be 0.89, 0.32 and 0.28, respectively. These findings agree well with the prediction based on eq. (1).

[3] = in water; cited from earlier work
MDA-MB-231 cells = assay: Combination index (C.I.) analysis from dose-effect profiles; type: cell-based; conditions: drug effect levels from 75% to 25%
Experimental: To confirm the drug synergy in cRGD-TPE-Pt-DOX, the combination index (C.I.) was calculated. The C.I. derived from the dose-effect profiles was plotted against drug effect level, which provided quantitative information of the combination drug effect, where C.I. values lower than, equal to, or higher than 1 denote synergism, additivity, or antagonism, respectively.
The combination therapy of cisplatin and DOX towards MDA-MB-231 cells was evaluated by the combination index (C.I.) analysis. The C.I. was calculated as follows: C.I.=D1/Df1+D2/Df2+D1D2/Df1Df2. Where. Df1 is the dose of Drug-1 required to produce x percent effect alone and D1 is the dose of Drug-1 required to produce the same x percent effect in combination with Drug-2; similarly, Df2 is the dose of Drug-2 required to produce x percent effect alone and D2 is the dose of Drug-2 required to produce the same x percent effect in combination with Drug-1. Theoretically, C.I. is the ratio of the combination dose to the sum of the single-drug doses at an isoeffective level. Consequently, C.I. values <1 indicate synergism, values >1 show antagonism, and values=1 indicate additive effects.

[4] = system: MDA-MB-231, MCF-7 and 293T cells; assay: Annexin V-FITC/PI apoptosis staining; type: cell-based; conditions: 6 h incubation; only MDA-MB-231 strong apoptotic fluorescence, MCF-7 and 293T negligible
Experimental: The toxicity of cRGD-TPE-Pt-DOX to different cells was also studied using MDA-MB-231, MCF-7 and 293T cells as examples. After incubation with cRGD-TPE-Pt-DOX for 6 h, the cells were stained with Annexin V-FITC/Propidium Iodide (PI), which are commonly used fluorescent probes to distinguish viable cells from apoptosis ones. […] This should be due to the integrin mediated endocytosis, which leads to selective cellular uptake of the prodrug cRGD-TPE-Pt-DOX.

U87-MG cells = assay: MTT anti-proliferative assay; type: cell-based; conditions: not affected by light irradiation
Experimental: as §1

SMILES: COc1ccc(C(=C(c2ccccc2)c2ccc(C(/C=C/c3ccc(OCCCNC(=O)CCC(=O)[O][Pt-2]([NH3+])([NH3+])([Cl])([Cl])[O]C(=O)CCC(=O)N[C@@H](CC(=O)O)C(=O)N[C@@H](CC(=O)O)C(=O)N[C@@H](CC(=O)O)C(=O)N[C@@H](CC(=O)O)C(=O)N[C@@H](CC(=O)O)C(=O)NCCCC[C@@H]4NC(=O)[C@@H](Cc5ccccc5)NC(=O)[C@H](CC(=O)O)NC(=O)CNC(=O)[C@H](CCCNC(=N)N)NC4=O)cc3)=C(C#N)C#N)cc2)c2ccc(OC)cc2)cc1 [TPECB-Pt-D5-cRGD]
- cytotoxicity (MCF-7 cells): minimum cytotoxicity
- cytotoxicity (293T cells): minimum cytotoxicity
- ABDA absorption at 400 nm, % of original value [1]: 24.1%

SMILES: COc1ccc(C(=C(c2ccccc2)c2ccc(-c3ccc(C(C)=C(C#N)C#N)cc3)cc2)c2ccc(OC)cc2)cc1 [PPDC]
- 1O2 quantum yield [2]: 0.89
- degradation rate of ABDA [2]: 0.0032

SMILES: O=C([O-])c1c(Cl)c(Cl)c(Cl)c(Cl)c1-c1c2cc(I)c(=O)c(I)c-2oc2c(I)c([O-])c(I)cc12.[Na+].[Na+] [Rose Bengal]
- 1O2 quantum yield of standard [3]: 0.75

SMILES: COc1ccc(C(=C(c2ccccc2)c2ccc(C(=C(C#N)C#N)c3ccccc3)cc2)c2ccc(OC)cc2)cc1 [TPPDC]
- 1O2 quantum yield [2]: 0.32
- degradation rate of ABDA [2]: 0.0018

SMILES: COc1cccc2c1C(=O)c1c(O)c3c(c(O)c1C2=O)C(OC1CC(NC(=O)CCC(=O)[O][Pt]([NH2])([NH2])([Cl])([Cl])[O]C(=O)CCC(=O)NCc2cn(Cc4ccc(/C(=C(\c5ccccc5)c5ccc(Cn6cc(C[C@@H]7NC(=O)[C@@H](Cc8ccccc8)NC(=O)[C@H](CC(=O)O)NC(=O)CNC(=O)[C@H](CCCNC(=N)N)NC7=O)nn6)cc5)c5ccccc5)cc4)nn2)C(O)C(C)O1)CC(O)(C(=O)CO)C3 (stereo partly shown) [cRGD-TPE-Pt-DOX]
- combination index (C.I.) result (MDA-MB-231 cells): synergistic effect
- selective apoptosis [4]: selectively kill integrin overexpressed cancer cells

SMILES: N.N.[Cl][Pt][Cl] [cisplatin]
- IC50 (U87-MG cells): 5.4 µM

SMILES: COc1ccc(C(=C(c2ccccc2)c2ccc(C(C)=C(C#N)C#N)cc2)c2ccc(OC)cc2)cc1 [TPDC]
- 1O2 quantum yield [2]: 0.28
- degradation rate of ABDA [2]: 0.0013
